Drawing on patent US12161722B2, “Bifunctional heterocyclic compound having BTK degradation function via ubiquitin proteasome pathway, and use thereof” (KOREA RESEARCH INSTITUTE OF CHEMICAL TECHNOLOGY, priority 2021, dated 2024), this text covers DC50 for 14 molecules.

Test [1] deals with T1, WT BTK protein (Homo sapiens, UniProt Q06187).
T1 construct: measured for intracellular BTK protein levels by Western blotting; endogenous in cells; host or cells: TMD-8 or RAMOS cells
Put plainly: BTK protein degradation assay (Western blotting), WT BTK. Format: cell-based. As to conditions: concentration range accounting for 50% degradation of WT BTK protein, TMD-8 or RAMOS cells, 24 hours. The method, boiled down: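 TMD-8 cells (1×10^6 cells/mL) treated 24 h with compound serial dilutions, then lysed in RIPA. Equal protein loads analysed by Western blot for BTK with GAPDH/β-actin as loading controls; activity binned by concentration giving 50% WT BTK degradation.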

The target in test [2] is T2, C481S BTK protein (Homo sapiens, UniProt Q06187, C481S).
T2 construct: expressed in transfected cells; host or cells: 293T BTK MUT (C481S) cells
T2 sequence (Q06187 whole entry C481S): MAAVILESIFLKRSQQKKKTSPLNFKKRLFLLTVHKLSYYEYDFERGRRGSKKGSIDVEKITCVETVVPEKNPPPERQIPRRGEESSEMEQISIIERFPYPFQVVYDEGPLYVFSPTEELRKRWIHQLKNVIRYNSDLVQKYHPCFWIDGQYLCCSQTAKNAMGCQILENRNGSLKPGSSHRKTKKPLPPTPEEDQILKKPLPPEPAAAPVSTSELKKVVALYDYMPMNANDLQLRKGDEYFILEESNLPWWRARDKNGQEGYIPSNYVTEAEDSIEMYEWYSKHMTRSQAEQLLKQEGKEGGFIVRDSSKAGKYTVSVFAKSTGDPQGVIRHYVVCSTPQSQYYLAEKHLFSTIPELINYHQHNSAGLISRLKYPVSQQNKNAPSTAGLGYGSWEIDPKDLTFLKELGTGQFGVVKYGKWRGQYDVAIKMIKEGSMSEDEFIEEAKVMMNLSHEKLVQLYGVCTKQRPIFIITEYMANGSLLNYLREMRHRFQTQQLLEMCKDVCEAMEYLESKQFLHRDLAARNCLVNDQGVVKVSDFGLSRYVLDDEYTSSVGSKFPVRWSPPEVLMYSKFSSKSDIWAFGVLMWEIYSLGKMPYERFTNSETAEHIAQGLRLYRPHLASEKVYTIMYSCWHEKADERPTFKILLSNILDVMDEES
In words: BTK protein degradation assay (Western blotting), C481S BTK. The format is cell-based. As to conditions: concentration range accounting for 50% degradation of C481S BTK protein, 293T BTK MUT (C481S) cells. The method, boiled down: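 TMD-8, RAMOS or 293T BTK C481S cells were treated 24 h with compounds from 10-fold DMSO stock series (10 to 0.0001 mM). BTK was measured by Western blot with GAPDH/β-actin references. Activity was binned by concentration giving 50% degradation: +++ (0.0001-0.01 μM), ++ (0.01-1 μM), + (1-10 μM), − (>10 μM).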
A general note: In western blotting, separated proteins are transferred to a membrane and probed.

T1 sequence (Q06187 whole entry): as the sequence (Q06187 whole entry C481S) above, with S481C counted along it

As for `Cc1cccc(C)c1Nc1nn(C)c2nc(Nc3ccc4c(c3)CN(CC3CCN(C(=O)COc5ccc6c(c5)C(=O)N(C5CCC(=O)NC5=O)C6=O)CC3)CC4)ncc12` (stereo not shown) [Compound 30, 5-(2-(4-((7-((3-((2,6-Dimethylphenyl)amino)-1-methyl-1H-pyrazolo[3,4-d]pyrimidin-6-yl)amino)-3,4-dihydroisoquinolin-2 (1H)-yl)methyl)piperidin-1-yl)-2-oxoethoxy)-2-(2,6-dioxopiperidin-3-yl)isoindoline-1,3-dione], the DC50 in test [1] was 0.1 to 10 nM; in test [2], 10 to 1000 nM.
For `Cc1cccc(C)c1Nc1nn(C)c2nc(Nc3ccc4c(c3)CN(CC3CCN(C(=O)CN5CCN(c6ccc7c(c6)C(=O)N(C6CCC(=O)NC6=O)C7=O)CC5)CC3)CC4)ncc12` (stereo not shown) [Compound 31, 5-(4-(2-(4-((7-((3-((2,6-Dimethylphenyl)amino)-1-methyl-1H-pyrazolo[3,4-d]pyrimidin-6-yl)amino)-3,4-dihydroisoquinolin-2 (1H)-yl)methyl)piperidin-1-yl)-2-oxoethyl)piperazin-1-yl)-2-(2,6-dioxopiperidin-3-yl)isoindoline-1,3-dione], in that order: 0.1 to 10 nM and 10 to 1000 nM.
For `Cc1cccc(C)c1Nc1nn(C)c2nc(Nc3ccc4c(c3)CN(C(=O)[C@H]3CCCN3C(=O)CN3CCN(c5ccc6c(c5)C(=O)N(C5CCC(=O)NC5=O)C6=O)CC3)CC4)ncc12` (stereo partly drawn) [Compound 32, 5-(4-(2-((R)-2-(7-((3-((2,6-Dimethylphenyl)amino)-1-methyl-1H-pyrazolo[3,4-d]pyrimidin-6-yl)amino)-1,2,3,4-tetrahydroisoquinoline-2-carbonyl)pyrrolidin-1-yl)-2-oxoethyl)piperazin-1-yl)-2-(2,6-dioxopiperidin-3-yl)isoindoline-1,3-dione], in that order: 10 to 1000 nM and 1000 to 10000 nM.
Consider `Cc1cccc(C)c1Nc1nn(C)c2nc(Nc3ccc4c(c3)CN(C(=O)[C@@H]3CCCN3C(=O)CNc3ccc5c(c3)C(=O)N(C3CCC(=O)NC3=O)C5=O)CC4)ncc12` (stereo partly drawn) [Compound 35, 5-((2-((S)-2-(7-((3-((2,6-Dimethylphenyl)amino)-1-methyl-1H-pyrazolo[3,4-d]pyrimidin-6-yl)amino)-1,2,3,4-tetrahydroisoquinoline-2-carbonyl)pyrrolidin-1-yl)-2-oxoethyl)amino)-2-(2,6-dioxopiperidin-3-yl)isoindoline-1,3-dione], for which the values for the DC50 in test [1] and in test [2] were 0.1 to 10 nM and 10 to 1000 nM, respectively.
For `Cc1cccc(C)c1Nc1nn(C)c2nc(Nc3ccc4c(c3)CN(CC3CCN(C(=O)C5CCN(c6ccc7nnn(C8CCC(=O)NC8=O)c(=O)c7c6)CC5)CC3)CC4)ncc12` (stereo not shown) [Compound 37, 3-(6-(4-(4-((7-((3-((2,6-Dimethylphenyl)amino)-1-methyl-1H-pyrazolo[3,4-d]pyrimidin-6-yl)amino)-3,4-dihydroisoquinolin-2 (1H)-yl)methyl)piperidine-1-carbonyl)piperidin-1-yl)-4-oxobenzo[d][1,2,3]triazin-3 (4H)-yl)piperidin-2,6-one], in that order: 0.1 to 10 nM and 0.1 to 10 nM.
For `Cc1cccc(C)c1Nc1nn(C)c2nc(Nc3ccc4c(c3)CN(CC3CCN(Cc5ccc6nnn(C7CCC(=O)NC7=O)c(=O)c6c5)CC3)CC4)ncc12` (stereo not shown) [Compound 46], in that order: 10 to 1000 nM and 10 to 1000 nM.
For `Cc1cccc(C)c1Nc1nn(C)c2nc(Nc3ccc4c(c3)CN(CC3CCN(c5ccc6c(=O)n(C7CCC(=O)NC7=O)nnc6c5)CC3)CC4)ncc12` (stereo not shown) [Compound 53, 3-(7-(4-((7-((3-((2,6-Dimethylphenyl)amino)-1-methyl-1H-pyrazolo[3,4-d]pyrimidin-6-yl)amino)-3,4-dihydroisoquinolin-2 (1H)-yl)methyl)piperidin-1-yl)-4-oxobenzo[d][1,2,3]triazin-3 (4H)-yl)piperidin-2,6-one], in that order: 0.1 to 10 nM and 10 to 1000 nM.
Take `Cc1cccc(C)c1Nc1nn(C)c2nc(Nc3ccc4c(c3)CN(C(=O)C3CCN(C(=O)C5CCN(c6ccc7c(c6)C(=O)N(C6CCC(=O)NC6=O)C7=O)CC5)CC3)CC4)ncc12` (stereo not shown) [Compound 54, 5-(4-(4-(7-((3-((2,6-Dimethylphenyl)amino)-1-methyl-1H-pyrazolo[3,4-d]pyrimidin-6-yl)amino)-1,2,3,4-tetrahydroisoquinoline-2-carbonyl)piperidine-1-carbonyl)piperidin-1-yl)-2-(2,6-dioxopiperidin-3-yl)isoindoline-1,3-dione]: the DC50 was 0.1 to 10 nM in test [1] and 10 to 1000 nM in test [2].
The matching figures for `Cc1cccc(C)c1Nc1nn(C)c2nc(Nc3ccc4c(c3)CN(C(=O)C3CCN(C(=O)COc5ccc6nnn(C7CCC(=O)NC7=O)c(=O)c6c5)CC3)CC4)ncc12` (stereo not shown) [Compound 55, 3-(6-(2-(4-(7-((3-((2,6-Dimethylphenyl)amino)-1-methyl-1H-pyrazolo[3,4-d]pyrimidin-6-yl)amino)-1,2,3,4-tetrahydroisoquinoline-2-carbonyl)piperidin-1-yl)-2-oxoethoxy)-4-oxobenzo[d][1,2,3]triazin-3 (4H)-yl)piperidin-2,6-one]: 0.1 to 10 nM and 10 to 1000 nM.
As for `Cc1cccc(C)c1Nc1nn(C)c2nc(Nc3ccc4c(c3)CN(C(=O)C3CCN(c5ccc6c(c5)C(=O)N(C5CCC(=O)NC5=O)C6=O)CC3)CC4)ncc12` (stereo not shown) [Compound 56, 5-(4-(7-((3-((2,6-Dimethylphenyl)amino)-1-methyl-1H-pyrazolo[3,4-d]pyrimidin-6-yl)amino)-1,2,3,4-tetrahydroisoquinoline-2-carbonyl)piperidin-1-yl)-2-(2,6-dioxopiperidin-3-yl)isoindoline-1,3-dione], the DC50 in test [1] and in test [2] was 10 to 1000 nM each time.
`Cc1cccc(C)c1Nc1nn(C)c2nc(Nc3ccc4c(c3)CN(C(=O)C3CCN(C(=O)CNc5ccc6nnn(C7CCC(=O)NC7=O)c(=O)c6c5)CC3)CC4)ncc12` (stereo not shown) [Compound 57]: the 50% degradation concentration (DC50) in test [1] fell in the range of 0.1 to 10 nM; in test [2], 10 to 1000 nM.
The matching figures for `Cc1cccc(C)c1Nc1nn(C)c2nc(Nc3ccc4c(c3)CN(C(=O)C3CCN(c5ccc6nnn(C7CCC(=O)NC7=O)c(=O)c6c5)CC3)CC4)ncc12` (stereo not shown) [Compound 58, 3-(6-(4-(7-((3-((2,6-Dimethylphenyl)amino)-1-methyl-1H-pyrazolo[3,4-d]pyrimidin-6-yl)amino)-1,2,3,4-tetrahydroisoquinoline-2-carbonyl)piperidin-1-yl)-4-oxobenzo[d][1,2,3]triazin-3 (4H)-yl)piperidin-2,6-one]: 0.1 to 10 nM and 10 to 1000 nM.
Turning to `Cc1cccc(C)c1Nc1nn(C)c2nc(Nc3ccc4c(c3)CN(C(=O)C3CCN(c5cccc6nnn(C7CCC(=O)NC7=O)c(=O)c56)CC3)CC4)ncc12` (stereo not shown) [Compound 59], the DC50 in test [1] is 0.1 to 10 nM; in test [2], 1000 to 10000 nM.
For `Cc1cccc(C)c1Nc1nn(C)c2nc(Nc3ccc4c(c3)CN(C(=O)C3CCN(C(=O)C5CCN(c6ccc7c(=O)n(C8CCC(=O)NC8=O)nnc7c6)CC5)CC3)CC4)ncc12` (stereo not shown) [Compound 60, 3-(7-(4-(4-(7-((3-((2,6-Dimethylphenyl)amino)-1-methyl-1H-pyrazolo[3,4-d]pyrimidin-6-yl)amino)-1,2,3,4-tetrahydroisoquinoline-2-carbonyl)piperidine-1-carbonyl)piperidin-1-yl)-4-oxobenzo[d][1,2,3]triazin-3 (4H)-yl)piperidin-2,6-one], in that order: 0.1 to 10 nM and 10 to 1000 nM.

Broadly, the DC50 is the concentration giving 50% degradation.
